{
  "source": "patent US20210308089A1",
  "about": "“METHODS OF TREATING AND/OR PREVENTING VIRAL INFECTIONS AND/OR DISEASES CAUSED BY VIRUSES IN A SUBJECT IN NEED THEREOF” (priority 2020, published 2021)",
  "system": "hs-CRP, D-dimer, ESR, blood counts, NLR, systemic immune-inflammation index",
  "assay": "VASCEPA-COVID-19: inflammatory biomarkers, baseline to day 14 follow-up, IPE vs usual care",
  "type": "in vivo, human",
  "method": "This was a 14-day long, prospective, multi-site, two-armed, randomized, open-label study of approximately 100 individuals in Canada with a COVID-19-positive diagnosis or who have recently undergone testing for SARS-CoV-2. […] Blood samples are collected to determine if IPE use lowers circulating pro-inflammatory biomarkers.\nEligible patients were randomly allocated to the IPE group or the usual care group. Randomization was performed using envelope randomization via stratification using random permuted blocks. Patients allocated to the IPE group received a loading dose of 4 g IPE twice daily for 3 days followed by 2 g twice daily for 11 days. The usual care group received no intervention. Participant characteristics were obtained at baseline, while blood samples and clinical outcomes were obtained/measured at baseline and at follow-up.\nThe primary biomarker endpoint was the change in high-sensitivity C-reactive protein (hs-CRP) levels from baseline (day 1) to follow-up (day 14+3) within-groups. D-dimer, erythrocyte sedimentation rate (ESR), complete blood count, differential count, serum albumin levels, the neutrophil-to-lymphocyte ratio (NLR), and the systemic immune-inflammation index (defined by platelet count multiplied by NLR) from baseline to follow-up were secondary biomarker endpoints. The clinical endpoint was the change in InFLUenza Patient-Reported Outcome (FLU-PRO©) diary scores (total and domain breakdown). The FLU-PRO© score is designed to evaluate the presence, severity, and duration of influenza symptoms in clinical trials and standardize symptom assessment with respect to viral infections. The diary provides a comprehensive evaluation of symptomology over 32 distinct questions. Respondents answer on an ordinal scale from 0-4 across six domains: Body/Systemic, Chest/Respiratory, Eyes, Gastrointestinal, Nose, and Throat. The validity and reliability of the FLU-PRO© diary has been investigated. The ability to successfully adapt the measure for COVID-19 experimentation has also been explained (www.evidera.com/flu-pro/). […] Additional clinical endpoints included measuring FLU-PRO© symptom prevalence and investigating correlations between improvements in FLU-PRO© and decreases in hs-CRP levels.\nBaseline characteristics, biomarkers, and clinical endpoints were described as frequencies and percentages (for categorical data) or medians with interquartile ranges (for continuous variables). Cohort comparisons were performed with the Wilcoxon Signed Rank (within-group), Mann-Whitney U (between group, continuous variables) or Fisher's Exact (between group, categorical variables) statistical tests. Within- and between-group p-values describing clinical (FLU-PRO©) score changes were conducted using a Wald test on least squares-mean estimated treatment difference, from an analysis of variance (ANOVA) model. Within- and between-group comparisons for the primary biomarker endpoint included median change from baseline. hs-CRP analyses were conducted with unadjusted and adjusted data (for sex, age [men <45 versus ≥45 years and women <55 versus ≥55 years], and baseline cardiovascular risk [absence or presence of cardiovascular comorbidities]). The model adjustments for baseline covariates were warranted based on current literature. Remaining unadjusted secondary biomarker data were evaluated via two-tailed within-group Wilcoxon Signed Rank Tests and between-group Mann-Whitney Tests. The prevalence and change from baseline total and individual domain FLU-PRO© scores were calculated as measures of alterations in symptom severity. Correlations between FLU-PRO© score improvement and hs-CRP reduction were calculated using the Spearman correlation coefficient. A p-value of less than 0.05 was considered significant without multiplicity adjustment, and all analyses were conducted using a modified intention-to-treat model.",
  "key": {"[1]": {"conditions": "14 + 3 Days, n = 44, within-group P 0.07"}, "[2]": {"conditions": "14 + 3 Days, n = 44, within-group P <0.01"}},
  "data": [
    {"smiles": "CC/C=C\\C/C=C\\C/C=C\\C/C=C\\C/C=C\\CCCC(=O)OCC", "note": "[icosapent ethyl, eicosapentaenoic acid ethyl ester]", "values": [
      {"measurement": "hs-CRP median, 14 + 3 Days", "setting": "14 + 3 Days, n = 44, IQR 0.6, 4.4", "result": 1.6, "unit": "mg/L"},
      {"measurement": "SII (systemic immune-inflammation index, median), 14 + 3 Days", "setting": "14 + 3 Days, n = 44, product of NLR*platelets, within-group P <0.01", "result": "4.319e+11", "unit": "L⁻¹"},
      {"measurement": "WBC Differential, Lymphocytes (median), 14 + 3 Days", "setting": "14 + 3 Days, n = 44, within-group P 0.01", "result": "2.4e+09", "unit": "L⁻¹"},
      {"measurement": "MCV (median), 14 + 3 Days", "setting": "14 + 3 Days, n = 44, within-group P 0.03", "result": 87.5, "unit": "fL"},
      {"measurement": "NLR (neutrophil-lymphocyte ratio, median), 14 + 3 Days", "setting": "[1]", "result": 1.6},
      {"measurement": "WBC Differential, Basophils (median), 14 + 3 Days", "setting": "[1]", "result": 0, "unit": "L⁻¹"},
      {"measurement": "WBC Differential, Eosinophils (median), 14 + 3 Days", "setting": "[1]", "result": "1e+08", "unit": "L⁻¹"},
      {"measurement": "WBC Differential, Monocytes (median), 14 + 3 Days", "setting": "14 + 3 Days, n = 44, within-group P 0.08", "result": "6e+08", "unit": "L⁻¹"},
      {"measurement": "RDW (median), 14 + 3 Days", "setting": "14 + 3 Days, n = 44, within-group P 0.14", "result": 12.5, "unit": "% CV"},
      {"measurement": "eGFR (median), 14 + 3 Days", "setting": "14 + 3 Days, n = 44, within-group P 0.17", "result": 87.0, "unit": "mL/min/1.73 m^2"},
      {"measurement": "Lipid Assessment, Triglycerides (median), 14 + 3 Days", "setting": "14 + 3 Days, n = 44, within-group P 0.19", "result": 1.5, "unit": "mmol/L"},
      {"measurement": "ESR (median), 14 + 3 Days", "setting": "14 + 3 Days, n = 44, within-group P 0.20", "result": 15.5, "unit": "mm/hr"},
      {"measurement": "Creatinine (median), 14 + 3 Days", "setting": "14 + 3 Days, n = 44, within-group P 0.21", "result": 73.5, "unit": "µmol/L"},
      {"measurement": "MCHC (median), 14 + 3 Days", "setting": "14 + 3 Days, n = 44, within-group P 0.22", "result": 339.5, "unit": "g/L"},
      {"measurement": "MCH (median), 14 + 3 Days", "setting": "14 + 3 Days, n = 44, within-group P 0.40", "result": 29.4, "unit": "pg"},
      {"measurement": "Albumin (median), 14 + 3 Days", "setting": "14 + 3 Days, n = 44, within-group P 0.88", "result": 43.0, "unit": "g/L"},
      {"measurement": "HbA1C (median), 14 + 3 Days", "setting": "[2]", "result": 5.1, "unit": "%"},
      {"measurement": "Hematocrit (median), 14 + 3 Days", "setting": "[2]", "result": 0.4, "unit": "L/L"},
      {"measurement": "Hemoglobin (median), 14 + 3 Days", "setting": "[2]", "result": 130.5, "unit": "g/L"},
      {"measurement": "Lipid Assessment, HDL-C (median), 14 + 3 Days", "setting": "[2]", "result": 1.2, "unit": "mmol/L"},
      {"measurement": "Lipid Assessment, LDL-C (median), 14 + 3 Days", "setting": "[2]", "result": 2.5, "unit": "mmol/L"},
      {"measurement": "Lipid Assessment, Non-HDL-C (median), 14 + 3 Days", "setting": "[2]", "result": 3.3, "unit": "mmol/L"},
      {"measurement": "Lipid Assessment, Total Cholesterol (median), 14 + 3 Days", "setting": "[2]", "result": 4.7, "unit": "mmol/L"},
      {"measurement": "Platelet (median), 14 + 3 Days", "setting": "[2]", "result": "2.615e+11", "unit": "L⁻¹"},
      {"measurement": "RBC Count (median), 14 + 3 Days", "setting": "[2]", "result": "4.7e+12", "unit": "L⁻¹"},
      {"measurement": "WBC Count (median), 14 + 3 Days", "setting": "[2]", "result": "7.3e+09", "unit": "L⁻¹"},
      {"measurement": "WBC Differential, Neutrophils (median), 14 + 3 Days", "setting": "[2]", "result": "3.9e+09", "unit": "L⁻¹"},
      {"measurement": "Albumin (median), Baseline", "setting": "Baseline, n = 44", "result": 44.0, "unit": "g/L"},
      {"measurement": "Creatinine (median), Baseline", "setting": "Baseline, n = 44", "result": 74.0, "unit": "µmol/L"},
      {"measurement": "D-dimer (median), Baseline", "setting": "Baseline, n = 44", "result": 324.0, "unit": "µg/L"},
      {"measurement": "ESR (median), Baseline", "setting": "Baseline, n = 44", "result": 18.0, "unit": "mm/hr"},
      {"measurement": "Erythrocyte Sedimentation Rate (median), Baseline", "setting": "Baseline, n = 44", "result": 18.0, "unit": "mm/hour"},
      {"measurement": "HbA1C (median), Baseline", "setting": "Baseline, n = 44", "result": 5.2, "unit": "%"},
      {"measurement": "Hematocrit (median), Baseline", "setting": "Baseline, n = 44", "result": 0.4, "unit": "L/L"},
      {"measurement": "Hemoglobin (median), Baseline", "setting": "Baseline, n = 44", "result": 139.5, "unit": "g/L"},
      {"measurement": "Lipid Assessment, HDL-C (median), Baseline", "setting": "Baseline, n = 44", "result": 1.1, "unit": "mmol/L"},
      {"measurement": "Lipid Assessment, LDL-C (median), Baseline", "setting": "Baseline, n = 44", "result": 2.2, "unit": "mmol/L"},
      {"measurement": "Lipid Assessment, Non-HDL-C (median), Baseline", "setting": "Baseline, n = 44", "result": 3.2, "unit": "mmol/L"},
      {"measurement": "Lipid Assessment, Total Cholesterol (median), Baseline", "setting": "Baseline, n = 44", "result": 4.3, "unit": "mmol/L"},
      {"measurement": "Lipid Assessment, Triglycerides (median), Baseline", "setting": "Baseline, n = 44", "result": 1.4, "unit": "mmol/L"},
      {"measurement": "MCH (median), Baseline", "setting": "Baseline, n = 44", "result": 30.0, "unit": "pg"},
      {"measurement": "MCHC (median), Baseline", "setting": "Baseline, n = 44", "result": 338.0, "unit": "g/L"},
      {"measurement": "MCV (median), Baseline", "setting": "Baseline, n = 44", "result": 86.5, "unit": "fL"},
      {"measurement": "NLR (neutrophil-lymphocyte ratio, median), Baseline", "setting": "Baseline, n = 44", "result": 1.7},
      {"measurement": "Platelet (median), Baseline", "setting": "Baseline, n = 44", "result": "2.27e+11", "unit": "L⁻¹"},
      {"measurement": "RBC Count (median), Baseline", "setting": "Baseline, n = 44", "result": "4.9e+12", "unit": "L⁻¹"},
      {"measurement": "RDW (median), Baseline", "setting": "Baseline, n = 44", "result": 12.3, "unit": "% CV"},
      {"measurement": "WBC Count (median), Baseline", "setting": "Baseline, n = 44", "result": "6.1e+09", "unit": "L⁻¹"},
      {"measurement": "WBC Differential, Basophils (median), Baseline", "setting": "Baseline, n = 44", "result": 0, "unit": "L⁻¹"},
      {"measurement": "WBC Differential, Eosinophils (median), Baseline", "setting": "Baseline, n = 44", "result": "1e+08", "unit": "L⁻¹"},
      {"measurement": "WBC Differential, Lymphocytes (median), Baseline", "setting": "Baseline, n = 44", "result": "1.9e+09", "unit": "L⁻¹"},
      {"measurement": "WBC Differential, Monocytes (median), Baseline", "setting": "Baseline, n = 44", "result": "5e+08", "unit": "L⁻¹"},
      {"measurement": "WBC Differential, Neutrophils (median), Baseline", "setting": "Baseline, n = 44", "result": "3e+09", "unit": "L⁻¹"},
      {"measurement": "eGFR (median), Baseline", "setting": "Baseline, n = 44", "result": 86.0, "unit": "mL/min/1.73 m^2"},
      {"measurement": "hs-CRP median, Baseline", "setting": "Baseline, n = 44, IQR 0.9, 11.6", "result": 3.2, "unit": "mg/L"},
      {"measurement": "SII (systemic immune-inflammation index, median), Baseline", "setting": "Baseline, n = 44, product of NLR*platelets", "result": "3.398e+11", "unit": "L⁻¹"},
      {"measurement": "D-dimer (median), Day 14 + 3", "setting": "Day 14 + 3, n = 44, within-group P 0.048", "result": 286.5, "unit": "µg/L"},
      {"measurement": "Erythrocyte Sedimentation Rate (median), Day 14 + 3", "setting": "Day 14 + 3, n = 44, within-group P 0.20", "result": 15.5, "unit": "mm/hour"},
      {"measurement": "Median hs-CRP change at follow-up", "setting": "baseline (day 1) to day 14+3, 8 g/day for 3 days, then 4 g/day for 11 days", "result": -0.5, "unit": "mg/L"},
      {"measurement": "hs-CRP Median Change from Baseline", "setting": "baseline to day 14 + 3, n = 44, IQR −6.9, 0.4, within-group P 0.011, between-group P 0.082 unadjusted, 0.043 adjusted", "result": -0.5, "unit": "mg/L"},
      {"measurement": "hs-CRP Median Percent Change from Baseline", "setting": "baseline to day 14 + 3, n = 44, IQR −80.1, 26.7", "result": "−25.0", "unit": "%"},
      {"measurement": "hs-CRP reduction from baseline levels", "setting": "baseline to day 14+3, within IPE group", "result": 25, "unit": "%"}
    ]}
  ]
}
